# Data taken from patent US12371454B2, “Cyclic peptide compound having Kras inhibitory action” (priority 2019, dated 2025).
# Starred links: 1 amine or outer side, 2 acyl side, 3 side chain; linkers in the order of their positions; H or OH if unused. Positions of bridges follow the written chain, without caps; N, C: chain ends. Non-standard residues stand in square brackets, D forms with d. Residues, ends and D or L forms follow the SMILES beside them. *: point of attachment. hPhe(3,5-F2-4-CF3) = N[C@@H](CCc1cc(F)c(C(F)(F)F)c(F)c1)C(=O)O; hPhe(3-Cl-4-CF3) = N[C@@H](CCc1ccc(C(F)(F)F)c(Cl)c1)C(=O)O; NMePhe(4-CF3) = CN[C@@H](Cc1ccc(C(F)(F)F)cc1)C(=O)O; Thiomorpholino(1,1-dioxo) = O=S1(=O)CCN(*)CC1; NMeAbu(4,4,4-F3) = CN[C@@H](CC(F)(F)F)C(=O)O; NMePhe(4-Cl) = CN[C@@H](Cc1ccc(Cl)cc1)C(=O)O; NMePhe(4-Me) = CN[C@@H](Cc1ccc(C)cc1)C(=O)O; X56 = O=C([C@H](Cc1cc(F)ccc1F)N[*:1])[*:2]; X8 = O=C([C@H](Cc1cc(I)ccc1F)N[*:1])[*:2]; NMeGly(cPent) = CN[C@H](C(=O)O)C1CCCC1; Phe(3-I) = N[C@@H](Cc1cccc(I)c1)C(=O)O; Pro(4,4-F2) = O=C(O)[C@@H]1CC(F)(F)CN1; NMeGly(cBu) = CN[C@H](C(=O)O)C1CCC1; NMeY = CN[C@@H](Cc1ccc(O)cc1)C(=O)O; NMeCha = CN[C@@H](CC1CCCCC1)C(=O)O; NMehLeu = CN[C@@H](CCC(C)C)C(=O)O; Hyp = O=C(O)[C@@H]1C[C@@H](O)CN1; NEtLeu = CCN[C@@H](CC(C)C)C(=O)O; NMeChg = CN[C@H](C(=O)O)C1CCCCC1; NMeI = CC[C@H](C)[C@H](NC)C(=O)O; NMeD = CN[C@@H](CC(=O)O)C(=O)O; NMeL = CN[C@@H](CC(C)C)C(=O)O; NMeNva = CCC[C@H](NC)C(=O)O; NMeAbu = CC[C@H](NC)C(=O)O; Morpholide = C1CN(*)CCO1; NMeA = CN[C@@H](C)C(=O)O; NMeAib = CNC(C)(C)C(=O)O; Nle = CCCC[C@H](N)C(=O)O; Piperidide = C1CCN(*)CC1; Pra = C#CC[C@H](N)C(=O)O; Pyrrolidide = C1CCN(*)C1; Ac5c = NC1(C(=O)O)CCCC1; Aze = O=C(O)[C@@H]1CCN1; CF3 = FC(F)(F)*; Sar = CNCC(=O)O
# Target: T1, Kras and SOS1 (biotin-tagged human Kras loaded with GDP, His-tagged human SOS1) (Homo sapiens, UniProt P01116, G12D)
# T1 construct: made in house; host or cells: E. coli (stated for Kras only)
# T1 sequence (P01116 1-188 isoform P01116-2 G12D): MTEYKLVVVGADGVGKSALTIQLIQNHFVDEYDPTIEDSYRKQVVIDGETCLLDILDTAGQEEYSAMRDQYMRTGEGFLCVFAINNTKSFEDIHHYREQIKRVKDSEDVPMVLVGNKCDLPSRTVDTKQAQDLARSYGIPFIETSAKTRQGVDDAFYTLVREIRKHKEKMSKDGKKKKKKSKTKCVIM
# Assay: Protein-protein interaction inhibition between Kras and SOS1 (KrasGl2D-SOS PPI) using AlphaScreen
# Type: binding
# Details: AlphaScreen; biotin-tagged human Kras loaded with GDP, His-tagged human SOS1; read-out: KRAS G12D-SOS PPI IC50
# How it was run: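 AlphaScreen format: Ni donor beads capture His-SOS1, streptavidin acceptor beads capture biotinylated Kras (E. coli-expressed, GDP-loaded post-purification). Excite 680 nm, read 520-620 nm.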
row,Compound,IC50 [pM]
1,"CC[C@H](C)[C@@H]1NC(=O)[C@H](CC(F)(F)F)N(C)C(=O)C[C@@H](C(=O)N2CCOCC2)N(C)C(=O)[C@H](C2CCCCC2)N(C)C(=O)C2(CCCC2)NC(=O)[C@@H]2CC(F)(F)CN2C(=O)[C@H](CCc2cc(F)c(C(F)(F)F)c(F)c2)NC(=O)CN(C)C(=O)[C@H](Cc2ccc(C(F)(F)F)cc2)N(C)C(=O)CN(C)C(=O)CN(C)C1=O [Compound 1260] ([NMeAbu(4,4,4-F3)]I[Sar][Sar][NMePhe(4-CF3)][Sar][hPhe(3,5-F2-4-CF3)][Pro(4,4-F2)][Ac5c][NMeChg][NMeD]-Morpholide; lactam N-11)",540
2,"CCO[C@@H]1C[C@H]2C(=O)NC3(CCCC3)C(=O)N(C)[C@@H]([C@@H](C)CC)C(=O)N(C)[C@H](C(=O)N3CCOCC3)CC(=O)N(C)[C@@H](CC(C)C)C(=O)N[C@@H]([C@@H](C)CC)C(=O)N(C)[C@@H](C)C(=O)N3CC[C@H]3C(=O)N(C)[C@@H](Cc3ccc(C(F)(F)F)cc3)C(=O)N(C)CC(=O)N[C@@H](CCc3cc(F)c(C(F)(F)F)c(F)c3)C(=O)N2C1 [Compound 1261] ([NMeL]I[NMeA][Aze][NMePhe(4-CF3)][Sar][hPhe(3,5-F2-4-CF3)][Hyp](Et)[Ac5c][NMeI][NMeD]-Morpholide; lactam N-11)",650
3,"CC[C@H](C)[C@@H]1NC(=O)[C@H](CC(C)C)N(C)C(=O)C[C@@H](C(=O)N2CCS(=O)(=O)CC2)N(C)C(=O)[C@H](C2CCCCC2)N(C)C(=O)C2(CCCC2)NC(=O)[C@@H]2CCCN2C(=O)[C@H](CCc2ccc(C(F)(F)F)c(Cl)c2)NC(=O)CN(C)C(=O)[C@H](CC2CCCCC2)N(C)C(=O)CN(C)C(=O)CN(C)C1=O [Compound 1263] ([NMeL]I[Sar][Sar][NMeCha][Sar][hPhe(3-Cl-4-CF3)]P[Ac5c][NMeChg][NMeD]-{Thiomorpholino(1,1-dioxo)}; lactam N-11)",2700
4,CCCC[C@@H]1NC(=O)[C@H](Cc2cc(F)ccc2F)NC(=O)CN(C)C(=O)[C@H](Cc2ccc(OC)cc2)N(C)C(=O)[C@@H]2CCN2C(=O)[C@H](C)N(C)C(=O)[C@H]([C@@H](C)CC)NC(=O)[C@H](CC)N(C)C(=O)C[C@@H](C(=O)N2CCCCC2)N(C)C(=O)[C@H](CC(C)C)NC(=O)C(C)(C)N(C)C1=O [Compound 1268] ([NMeAbu]I[NMeA][Aze][NMeY](Me)[Sar][X56][Nle][NMeAib]L[NMeD]-Piperidide; lactam N-11),19000
5,"CC[C@H](C)[C@@H]1NC(=O)[C@H](CC(C)C)N(C)C(=O)C[C@@H](C(=O)N2CCCC2)N(C)C(=O)[C@H](C2CCCC2)N(C)C(=O)C2(CCCC2)NC(=O)[C@@H]2CC(F)(F)CN2C(=O)[C@H](CCc2ccc(C(F)(F)F)c(Cl)c2)NC(=O)CN(C)C(=O)[C@H](CC2CCCCC2)N(C)C(=O)CN(C)C(=O)CN(C)C1=O [Compound 1270] ([NMeL]I[Sar][Sar][NMeCha][Sar][hPhe(3-Cl-4-CF3)][Pro(4,4-F2)][Ac5c][NMeGly(cPent)][NMeD]-Pyrrolidide; lactam N-11)",610
6,CC[C@H](C)[C@@H]1NC(=O)[C@H](CC(C)C)N(C)C(=O)C[C@@H](C(=O)N2CCCCC2)NC(=O)[C@H](C2CCCCC2)N(C)C(=O)C2(CCCC2)NC(=O)[C@@H]2CCCN2C(=O)[C@H](CCc2ccc(C(F)(F)F)c(Cl)c2)NC(=O)CN(C)C(=O)[C@H](CC2CCCCC2)N(C)C(=O)CN(C)C(=O)CN(C)C1=O [Compound 1274] ([NMeL]I[Sar][Sar][NMeCha][Sar][hPhe(3-Cl-4-CF3)]P[Ac5c][NMeChg]D-Piperidide; lactam N-11),3800
7,CC[C@H](C)[C@@H]1NC(=O)[C@H](CC(C)C)N(C)C(=O)C[C@@H](C(=O)N2CCOCC2)NC(=O)[C@H]([C@@H](C)CC)N(C)C(=O)C2(CCCC2)NC(=O)[C@@H]2CCCN2C(=O)[C@H](CCc2ccc(C(F)(F)F)c(Cl)c2)NC(=O)CN(C)C(=O)[C@H](CC2CCCCC2)N(C)C(=O)CN(C)C(=O)CN(C)C1=O [Compound 1277] ([NMeL]I[Sar][Sar][NMeCha][Sar][hPhe(3-Cl-4-CF3)]P[Ac5c][NMeI]D-Morpholide; lactam N-11),6700
8,"CC[C@H](C)[C@@H]1NC(=O)[C@H](CC(C)C)N(C)C(=O)C[C@@H](C(=O)N2CCS(=O)(=O)CC2)NC(=O)[C@H]([C@@H](C)CC)N(C)C(=O)C2(CCCC2)NC(=O)[C@@H]2CCCN2C(=O)[C@H](CCc2ccc(C(F)(F)F)c(Cl)c2)NC(=O)CN(C)C(=O)[C@H](CC2CCCCC2)N(C)C(=O)CN(C)C(=O)CN(C)C1=O [Compound 1279] ([NMeL]I[Sar][Sar][NMeCha][Sar][hPhe(3-Cl-4-CF3)]P[Ac5c][NMeI]D-{Thiomorpholino(1,1-dioxo)}; lactam N-11)",16000
9,"CC[C@H](C)[C@@H]1NC(=O)[C@H](CC(F)(F)F)N(C)C(=O)C[C@@H](C(=O)N2CCCC2)N(C)C(=O)[C@H](C2CCCCC2)N(C)C(=O)C2(CCCC2)NC(=O)[C@@H]2CC(F)(F)CN2C(=O)[C@H](CCc2cc(F)c(C(F)(F)F)c(F)c2)NC(=O)CN(C)C(=O)[C@H](CC2CCCCC2)N(C)C(=O)CN(C)C(=O)CN(C)C1=O [Compound 1281] ([NMeAbu(4,4,4-F3)]I[Sar][Sar][NMeCha][Sar][hPhe(3,5-F2-4-CF3)][Pro(4,4-F2)][Ac5c][NMeChg][NMeD]-Pyrrolidide; lactam N-11)",420
10,CC[C@H](C)[C@@H]1NC(=O)[C@H](CC(C)C)N(CC)C(=O)C[C@@H](C(=O)N(C)C)N(C)C(=O)[C@H](C2CCCC2)N(C)C(=O)C2(CCCC2)NC(=O)[C@@H]2CCCN2C(=O)[C@H](CCc2ccc(C(F)(F)F)c(Cl)c2)NC(=O)CN(C)C(=O)[C@H](Cc2ccc(C)cc2)N(C)C(=O)[C@@H]2CCN2C(=O)[C@H](C)NC1=O [Compound 1282] ([NEtLeu]IA[Aze][NMePhe(4-Me)][Sar][hPhe(3-Cl-4-CF3)]P[Ac5c][NMeGly(cPent)][NMeD]-NMe2; lactam N-11),810
11,CCCC[C@@H]1NC(=O)[C@H](Cc2cc(I)ccc2F)NC(=O)CN(C)C(=O)[C@H](Cc2ccc(Cl)cc2)N(C)C(=O)CN(C)C(=O)CN(C)C(=O)[C@H]([C@@H](C)CC)NC(=O)[C@H](CC(C)C)N(C)C(=O)C[C@@H](C(=O)N2CCCCC2)N(C)C(=O)[C@H](CC(C)C)NC(=O)C(C)(C)N(C)C1=O [Compound 1286] ([NMeL]I[Sar][Sar][NMePhe(4-Cl)][Sar][X8][Nle][NMeAib]L[NMeD]-Piperidide; lactam N-11),24000
12,C#CC[C@@H]1NC(=O)[C@H](Cc2cccc(I)c2)NC(=O)CN(C)C(=O)[C@H](Cc2ccc(OC(F)(F)F)cc2)N(C)C(=O)[C@@H]2CCN2C(=O)[C@H](C)N(C)C(=O)[C@H]([C@@H](C)CC)NC(=O)[C@H](CC(C)C)N(C)C(=O)C[C@@H](C(=O)N2CCCCC2)N(C)C(=O)[C@H](CC(C)C)NC(=O)C(C)(C)N(C)C1=O [Compound 1288] ([NMeL]I[NMeA][Aze][NMeY](CF3)[Sar][Phe(3-I)][Pra][NMeAib]L[NMeD]-Piperidide; lactam N-11),31000
13,CC[C@H](C)[C@@H]1NC(=O)[C@H](CCC(C)C)N(C)C(=O)C[C@@H](C(=O)N2CCCC2)N(C)C(=O)[C@H]([C@@H](C)CC)N(C)C(=O)C2(CCCC2)NC(=O)[C@@H]2CCCN2C(=O)[C@H](CCc2ccc(C(F)(F)F)c(Cl)c2)NC(=O)CN(C)C(=O)[C@H](Cc2ccc(C(F)(F)F)cc2)N(C)C(=O)[C@@H]2CCN2C(=O)[C@H](C)N(C)C1=O [Compound 1289] ([NMehLeu]I[NMeA][Aze][NMePhe(4-CF3)][Sar][hPhe(3-Cl-4-CF3)]P[Ac5c][NMeI][NMeD]-Pyrrolidide; lactam N-11),670
14,"CC[C@H](C)[C@@H]1NC(=O)[C@H](C2CCC2)N(C)C(=O)C[C@@H](C(=O)N2CCCC2)N(C)C(=O)[C@H](C2CCCCC2)N(C)C(=O)C2(CCCC2)NC(=O)[C@@H]2CC(F)(F)CN2C(=O)[C@H](CCc2cc(F)c(C(F)(F)F)c(F)c2)NC(=O)CN(C)C(=O)[C@H](CC2CCCCC2)N(C)C(=O)CN(C)C(=O)CN(C)C1=O [Compound 1295] ([NMeGly(cBu)]I[Sar][Sar][NMeCha][Sar][hPhe(3,5-F2-4-CF3)][Pro(4,4-F2)][Ac5c][NMeChg][NMeD]-Pyrrolidide; lactam N-11)",500
15,"CCC[C@H]1C(=O)N[C@@H]([C@@H](C)CC)C(=O)N(C)CC(=O)N(C)CC(=O)N(C)[C@@H](Cc2ccc(C)cc2)C(=O)N(C)CC(=O)N[C@@H](CCc2ccc(C(F)(F)F)c(Cl)c2)C(=O)N2CC(F)(F)C[C@H]2C(=O)NC2(CCCC2)C(=O)N(C)[C@@H](C2CCCCC2)C(=O)N(C)[C@H](C(=O)N2CCCC2)CC(=O)N1C [Compound 1296] ([NMeNva]I[Sar][Sar][NMePhe(4-Me)][Sar][hPhe(3-Cl-4-CF3)][Pro(4,4-F2)][Ac5c][NMeChg][NMeD]-Pyrrolidide; lactam N-11)",590
16,C#CC[C@@H]1NC(=O)[C@H](Cc2cccc(I)c2)NC(=O)CN(C)C(=O)[C@H](Cc2ccc(OC(F)(F)F)cc2)N(C)C(=O)[C@@H]2CCN2C(=O)CN(C)C(=O)[C@H]([C@@H](C)CC)NC(=O)[C@H](CC(C)C)N(C)C(=O)C[C@@H](C(=O)N2CCCCC2)N(C)C(=O)[C@H](CC(C)C)NC(=O)C(C)(C)N(C)C1=O [Compound 1298] ([NMeL]I[Sar][Aze][NMeY](CF3)[Sar][Phe(3-I)][Pra][NMeAib]L[NMeD]-Piperidide; lactam N-11),28000
17,"CC[C@H](C)[C@@H]1NC(=O)[C@H](CC(F)(F)F)N(C)C(=O)C[C@@H](C(=O)N2CCCC2)N(C)C(=O)[C@H](C2CCCCC2)N(C)C(=O)C2(CCCC2)NC(=O)[C@@H]2CC(F)(F)CN2C(=O)[C@H](CCc2cc(F)c(C(F)(F)F)c(F)c2)NC(=O)CN(C)C(=O)[C@H](Cc2ccc(C(F)(F)F)cc2)N(C)C(=O)CN(C)C(=O)CN(C)C1=O [Compound 1303] ([NMeAbu(4,4,4-F3)]I[Sar][Sar][NMePhe(4-CF3)][Sar][hPhe(3,5-F2-4-CF3)][Pro(4,4-F2)][Ac5c][NMeChg][NMeD]-Pyrrolidide; lactam N-11)",720
